The supplement of paper PMC7017272
± gives the standard deviation of the averaged measurements.

Legend:
UT-SCC-24B [1] = experiment: relative IC50 (midpoint of the fitted curve; maximal inhibition may be below 50%); higher = less potent; conditions: treatment time: 3 days
In short: (§1)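 The FIMM pipeline was used to fit percent-inhibition dose–response curves, giving IC50, maximal inhibition and drug sensitivity score. Input data were CellTiter-Glo 2.0 luminescence readings, normalised to vehicle (0.1% DMSO) and cell-killing control wells, from HPV-negative HNSCC cell lines seeded at 500 cells/well in 384-well plates. Cells sat on plastic, on Matrigel or Myogel coatings (500 µg/mL), or within Matrigel or Myogel plus rat collagen I, and received compounds at five 10-fold concentrations for 3 days.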

UT-SCC-8 [2] = experiment: as above; conditions: culture condition: embedded in Myogel + collagen I; treatment time: 3 days
In short: as §1

UT-SCC-106A [3] = experiment: as above; conditions: treatment time: 3 days
In short: as §1

UT-SCC-73 [4] = experiment: as above; conditions: treatment time: 3 days
In short: as §1

UT-SCC-44 [5] = experiment: as above; conditions: treatment time: 3 days
In short: as §1

UT-SCC-28 [6] = experiment: as above; conditions: treatment time: 3 days
In short: as §1

UT-SCC-81 = experiment: as above; conditions: treatment time: 3 days
In short: as §1

UT-SCC-42B = experiment: as above; conditions: treatment time: 3 days
In short: as §1

UT-SCC-42A [7] = experiment: maximal % inhibition of viability relative to DMSO; higher = stronger effect; conditions: treatment time: 3 days
In short: as §1

UT-SCC-40 [8] = experiment: as above; conditions: treatment time: 3 days
In short: as §1

UT-SCC-24B [9] = experiment: as above; conditions: treatment time: 3 days
In short: as §1

UT-SCC-8 [10] = experiment: as above; conditions: treatment time: 3 days
In short: as §1

UT-SCC-106A [11] = experiment: as above; conditions: treatment time: 3 days
In short: as §1

UT-SCC-73 [12] = experiment: as above; conditions: treatment time: 3 days
In short: as §1

UT-SCC-44 [13] = experiment: as above; conditions: treatment time: 3 days
In short: as §1

UT-SCC-28 [14] = experiment: as above; conditions: treatment time: 3 days
In short: as §1

UT-SCC-42A [15] = experiment: relative IC50 (midpoint of the fitted curve; maximal inhibition may be below 50%); higher = less potent; conditions: treatment time: 3 days
In short: as §1

UT-SCC-40 [16] = experiment: as above; conditions: treatment time: 3 days
In short: as §1

UT-SCC-14 = experiment: as above; conditions: culture condition: on top of Matrigel; treatment time: 3 days
In short: as §1

[17] = culture condition: embedded in Matrigel
[18] = culture condition: on top of Matrigel
[19] = culture condition: on top of Myogel
[20] = culture condition: plastic 2D (no matrix)
[21] = culture condition: embedded in Myogel + collagen I

## C#Cc1cccc(Nc2ncnc3cc(OCCOC)c(OCCOC)cc23)c1 [Erlotinib]
UT-SCC-24B [1]; [17]
  relative IC50: 522 nM
UT-SCC-24B [1]; [18]
  relative IC50: 591 nM
UT-SCC-24B [1]; [19]
  relative IC50: 2490 nM
UT-SCC-24B [1]; [20]
  relative IC50: 227 nM
UT-SCC-8 [2]
  relative IC50: > 9890 nM
UT-SCC-106A [3]; [17]
  relative IC50: 2070 nM
UT-SCC-106A [3]; [19]
  relative IC50: > 9890 nM
UT-SCC-73 [4]; [20]
  relative IC50: > 9890 nM
UT-SCC-44 [5]; [17]
  relative IC50: > 9890 nM
UT-SCC-44 [5]; [18]
  relative IC50: > 9890 nM
UT-SCC-28 [6]; [17]
  relative IC50: > 9890 nM
UT-SCC-81; [21]
  relative IC50: > 9890 nM
UT-SCC-42B; [17]
  relative IC50: 2110 nM
UT-SCC-42B; [19]
  relative IC50: > 9890 nM
UT-SCC-42B; [20]
  relative IC50: > 9890 nM
UT-SCC-42A [7]; [17]
  maximal % inhibition of viability: 23.9 ± 23%
UT-SCC-42A [7]; [21]
  maximal % inhibition of viability: 9.7 ± 4.9%
UT-SCC-42A [7]; [18]
  maximal % inhibition of viability: 32.1 ± 18%
UT-SCC-42A [7]; [19]
  maximal % inhibition of viability: 12.6 ± 2.3%
UT-SCC-42A [7]; [20]
  maximal % inhibition of viability: 20.6 ± 17%
UT-SCC-40 [8]; [17]
  maximal % inhibition of viability: 18.6 ± 8.3%
UT-SCC-40 [8]; [21]
  maximal % inhibition of viability: 11.2 ± 9.4%
UT-SCC-40 [8]; [18]
  maximal % inhibition of viability: 7.93 ± 2.4%
UT-SCC-40 [8]; [19]
  maximal % inhibition of viability: 7.8 ± 4.5%
UT-SCC-40 [8]; [20]
  maximal % inhibition of viability: 9.97 ± 3.5%
UT-SCC-24B [9]; [17]
  maximal % inhibition of viability: 76.5 ± 0.95%
UT-SCC-24B [9]; [21]
  maximal % inhibition of viability: 67.5 ± 6.2%
UT-SCC-24B [9]; [18]
  maximal % inhibition of viability: 74.4 ± 3%
UT-SCC-24B [9]; [19]
  maximal % inhibition of viability: 59.3 ± 5%
UT-SCC-24B [9]; [20]
  maximal % inhibition of viability: 80.9 ± 1.6%
UT-SCC-8 [10]; [17]
  maximal % inhibition of viability: 67.3 ± 28%
UT-SCC-8 [10]; [21]
  maximal % inhibition of viability: 14.7 ± 22%
UT-SCC-8 [10]; [18]
  maximal % inhibition of viability: 55.5 ± 29%
UT-SCC-8 [10]; [19]
  maximal % inhibition of viability: 21.4 ± 0.72%
UT-SCC-8 [10]; [20]
  maximal % inhibition of viability: 40.5 ± 14%
UT-SCC-106A [11]; [17]
  maximal % inhibition of viability: 25.1 ± 5.3%
UT-SCC-106A [11]; [21]
  maximal % inhibition of viability: 10.4 ± 0.53%
UT-SCC-106A [11]; [18]
  maximal % inhibition of viability: 23.6 ± 11%
UT-SCC-106A [11]; [19]
  maximal % inhibition of viability: 2.57 ± 2.4%
UT-SCC-106A [11]; [20]
  maximal % inhibition of viability: 19.6 ± 7.3%
UT-SCC-73 [12]; [17]
  maximal % inhibition of viability: 11.2 ± 8.1%
UT-SCC-73 [12]; [21]
  maximal % inhibition of viability: 13.6 ± 19%
UT-SCC-73 [12]; [18]
  maximal % inhibition of viability: 13.9 ± 3.5%
UT-SCC-73 [12]; [19]
  maximal % inhibition of viability: 9.4 ± 5.2%
UT-SCC-73 [12]; [20]
  maximal % inhibition of viability: 5.97 ± 2.2%
UT-SCC-44 [13]; [17]
  maximal % inhibition of viability: 6.07 ± 5.3%
UT-SCC-44 [13]; [21]
  maximal % inhibition of viability: 10 ± 9.8%
UT-SCC-44 [13]; [18]
  maximal % inhibition of viability: 14.1 ± 8.5%
UT-SCC-44 [13]; [19]
  maximal % inhibition of viability: 20.4 ± 11%
UT-SCC-44 [13]; [20]
  maximal % inhibition of viability: 15.9 ± 13%
UT-SCC-28 [14]; [17]
  maximal % inhibition of viability: 11.3 ± 9.9%
UT-SCC-28 [14]; [21]
  maximal % inhibition of viability: 14 ± 5.9%
UT-SCC-28 [14]; [18]
  maximal % inhibition of viability: 12.2 ± 3.6%
UT-SCC-28 [14]; [20]
  maximal % inhibition of viability: 8.37 ± 7.3%

## CO[C@H]1C[C@@H]2CC[C@@H](C)[C@@](O)(O2)C(=O)C(=O)N2CCCC[C@H]2C(=O)O[C@H]([C@H](C)C[C@@H]2CC[C@@H](OCCO)[C@H](OC)C2)CC(=O)[C@H](C)/C=C(\C)[C@@H](O)[C@@H](OC)C(=O)[C@H](C)C[C@H](C)/C=C/C=C/C=C/1C [Everolimus]
UT-SCC-42A [15]; [21]
  relative IC50: 5.97 nM
UT-SCC-42A [15]; [18]
  relative IC50: 15 nM
UT-SCC-42A [15]; [19]
  relative IC50: 10.5 nM
UT-SCC-40 [16]; [17]
  relative IC50: 4.61 nM
UT-SCC-40 [16]; [20]
  relative IC50: 9.09 nM
UT-SCC-24B [1]; [19]
  relative IC50: 5.03 nM
UT-SCC-106A [3]; [17]
  relative IC50: 28.4 nM
UT-SCC-106A [3]; [19]
  relative IC50: 8.1 nM
UT-SCC-73 [4]; [18]
  relative IC50: 1.92 nM
UT-SCC-73 [4]; [20]
  relative IC50: 7.59 nM
UT-SCC-14
  relative IC50: 6.41 nM
UT-SCC-44 [5]; [21]
  relative IC50: 6.3 nM
UT-SCC-44 [5]; [18]
  relative IC50: 0.89 nM
UT-SCC-44 [5]; [19]
  relative IC50: 1.1 nM
UT-SCC-28 [6]; [21]
  relative IC50: 6.89 nM
UT-SCC-81; [21]
  relative IC50: 2.53 nM
UT-SCC-81; [18]
  relative IC50: 6.53 nM
UT-SCC-81; [19]
  relative IC50: 6.12 nM
UT-SCC-81; [20]
  relative IC50: 2.97 nM
UT-SCC-42B; [20]
  relative IC50: 20.8 nM
UT-SCC-42A [7]; [17]
  maximal % inhibition of viability: 17.3 ± 9.2%
UT-SCC-42A [7]; [21]
  maximal % inhibition of viability: 32.2 ± 2.5%
UT-SCC-42A [7]; [18]
  maximal % inhibition of viability: 34.3 ± 6%
UT-SCC-42A [7]; [19]
  maximal % inhibition of viability: 33.1 ± 5%
UT-SCC-42A [7]; [20]
  maximal % inhibition of viability: 29.9 ± 2.9%
UT-SCC-40 [8]; [17]
  maximal % inhibition of viability: 27.2 ± 25%
UT-SCC-40 [8]; [21]
  maximal % inhibition of viability: 33.3 ± 4.4%
UT-SCC-40 [8]; [18]
  maximal % inhibition of viability: 23.3 ± 5.5%
UT-SCC-40 [8]; [19]
  maximal % inhibition of viability: 20.2 ± 10%
UT-SCC-40 [8]; [20]
  maximal % inhibition of viability: 21.6 ± 8.3%
UT-SCC-24B [9]; [17]
  maximal % inhibition of viability: 28.7 ± 6.1%
UT-SCC-24B [9]; [21]
  maximal % inhibition of viability: 44.8 ± 5.3%
UT-SCC-24B [9]; [18]
  maximal % inhibition of viability: 18.1 ± 0.91%
UT-SCC-24B [9]; [19]
  maximal % inhibition of viability: 30.1 ± 8.6%
UT-SCC-24B [9]; [20]
  maximal % inhibition of viability: 24.9 ± 3%
UT-SCC-8 [10]; [17]
  maximal % inhibition of viability: 39.1 ± 2.8%
UT-SCC-8 [10]; [21]
  maximal % inhibition of viability: 36.4 ± 12%
UT-SCC-8 [10]; [18]
  maximal % inhibition of viability: 36.6 ± 9.4%
UT-SCC-8 [10]; [19]
  maximal % inhibition of viability: 46.9 ± 14%
UT-SCC-8 [10]; [20]
  maximal % inhibition of viability: 44.7 ± 11%
UT-SCC-106A [11]; [17]
  maximal % inhibition of viability: 30.8 ± 12%
UT-SCC-106A [11]; [21]
  maximal % inhibition of viability: 20.6 ± 4.6%
UT-SCC-106A [11]; [18]
  maximal % inhibition of viability: 40.7 ± 13%
UT-SCC-106A [11]; [19]
  maximal % inhibition of viability: 21.3 ± 5%
UT-SCC-106A [11]; [20]
  maximal % inhibition of viability: 50.1 ± 11%
UT-SCC-73 [12]; [17]
  maximal % inhibition of viability: 22.8 ± 3.8%
UT-SCC-73 [12]; [21]
  maximal % inhibition of viability: 46.1 ± 20%
UT-SCC-73 [12]; [18]
  maximal % inhibition of viability: 26 ± 4.4%
UT-SCC-73 [12]; [19]
  maximal % inhibition of viability: 34.8 ± 1.5%
UT-SCC-73 [12]; [20]
  maximal % inhibition of viability: 28 ± 2.5%
UT-SCC-44 [13]; [17]
  maximal % inhibition of viability: 30.9 ± 17%
UT-SCC-44 [13]; [21]
  maximal % inhibition of viability: 45 ± 2.1%
UT-SCC-44 [13]; [18]
  maximal % inhibition of viability: 34 ± 2.7%
UT-SCC-44 [13]; [19]
  maximal % inhibition of viability: 37.7 ± 4.2%
UT-SCC-44 [13]; [20]
  maximal % inhibition of viability: 33.1 ± 5.5%
UT-SCC-28 [14]; [17]
  maximal % inhibition of viability: 28.6 ± 11%
UT-SCC-28 [14]; [21]
  maximal % inhibition of viability: 27.7 ± 7.6%
UT-SCC-28 [14]; [18]
  maximal % inhibition of viability: 28.2 ± 6.3%
UT-SCC-28 [14]; [20]
  maximal % inhibition of viability: 28.1 ± 8.8%
